Data from ChEMBL document CHEMBL4483862, “Open-source discovery of chemical leads for next-generation chemoprotective antimalarials” (2018).

Test system: Plasmodium berghei
Assay: Luciferase/luciferin-expressing antifolate-resistant parasites were used to infect a culture of HepG2 cells that were pre-incubated with compounds. Infected hepatocytes emit light due to the luciferase reaction. Assay results are presented as the percent inhibition of light emission compared to control. […]
Assay type: functional
Conditions: sporozoite; for IC90: read-out: LUCIFERASE INFECTION ASSAY - IC90

Row | SMILES | IC90 [µM] | other results
1 | COc1ccc(C2CC(=O)c3cnn(-c4nc(C)cc(C)n4)c3C2)cc1 (stereo not given) | 4.91 | IC50 (PBLUC_HILL_SLOPE 4.21, PBLUC_R_SQUARED 0.368, read-out: LUCIFERASE INFECTION ASSAY - IC50): 2.91 µM
2 | Nc1ccccc1SC(CC(=O)c1ccccc1)c1ccc([N+](=O)[O-])cc1 (stereo not given) | > 8.72 | IC50 (PBLUC_HILL_SLOPE 4.35, PBLUC_R_SQUARED 0.338, read-out: LUCIFERASE INFECTION ASSAY - IC50): 8.12 µM
3 | COc1cc(OC)nc(Nc2nc(C(N)Cc3ccccc3)cs2)n1 (stereo not given) | 7.54 | IC50 (PBLUC_HILL_SLOPE 4.21, PBLUC_R_SQUARED 0.584, read-out: LUCIFERASE INFECTION ASSAY - IC50): 4.47 µM
4 | NC(c1csc(Nc2ccc(C(F)(F)F)cn2)n1)C1CCCCC1 (stereo not given) | > 9.26 | IC50 (PBLUC_HILL_SLOPE 4.28, PBLUC_R_SQUARED 0.42, read-out: LUCIFERASE INFECTION ASSAY - IC50): 7.59 µM
5 | CN1/C(=C\C=N\NC(=O)c2cccnc2)C(C)(C)c2ccccc21 | > 10 | IC50 (PBLUC_HILL_SLOPE 4.32, PBLUC_R_SQUARED 0.562, read-out: LUCIFERASE INFECTION ASSAY - IC50): 7.23 µM
6 | Cc1ccc(C(NCC(=O)Nc2sccc2C(N)=O)c2cccs2)cc1 (stereo not given) | 3.67 | IC50 (PBLUC_HILL_SLOPE 4.31, PBLUC_R_SQUARED 0.32, read-out: LUCIFERASE INFECTION ASSAY - IC50): 2.2 µM
7 | Cc1ccc2nc(NC(=O)C(C)Oc3ccccc3)c(C(=O)NC3CCCC3)n2c1 (stereo not given) | 6.95 | IC50 (PBLUC_HILL_SLOPE 4.38, PBLUC_R_SQUARED 0.362, read-out: LUCIFERASE INFECTION ASSAY - IC50): 4.21 µM
8 | Cc1nc(SCC(=O)Nc2ccccc2C#N)c2c(-c3cccs3)csc2n1 | > 10 | IC50 (PBLUC_HILL_SLOPE 4.22, PBLUC_R_SQUARED 0.391, read-out: LUCIFERASE INFECTION ASSAY - IC50): 6.05 µM
9 | NS(=O)(=O)c1ccc(CCNC(=O)COc2ccccc2Cc2ccccc2)cc1 | 9.31 | IC50 (PBLUC_HILL_SLOPE 4.18, PBLUC_R_SQUARED 0.0848, read-out: LUCIFERASE INFECTION ASSAY - IC50): 5.51 µM
10 | COC(=O)c1c(NC(=O)c2ccco2)c2cc(NC3CCN(C(C)C)CC3)cnc2n1CCC(C)C | > 6.66 | IC50 (PBLUC_HILL_SLOPE 4.28, PBLUC_R_SQUARED 0.61, read-out: LUCIFERASE INFECTION ASSAY - IC50): 4.64 µM
11 | CC(Oc1ccc(Cl)cc1Cl)C(=O)Nc1nc(-c2c[nH]c(C(N)=O)c2)cs1 (stereo not given) | 2.99 | IC50 (PBLUC_HILL_SLOPE 4.28, PBLUC_R_SQUARED 0.703, read-out: LUCIFERASE INFECTION ASSAY - IC50): 1.79 µM
12 | Cn1/c(=N/NC=C2CCC/C(=C/c3ccccc3)C2=O)sc2ccccc21 | > 10 | IC50 (PBLUC_HILL_SLOPE 4.26, PBLUC_R_SQUARED 0.398, read-out: LUCIFERASE INFECTION ASSAY - IC50): 8.32 µM
13 | COc1ccc(-c2csc3ncnc(NCC4(N5CCOCC5)CCCCC4)c23)cc1 | 9.48 | IC50 (PBLUC_HILL_SLOPE 4.26, PBLUC_R_SQUARED 0.161, read-out: LUCIFERASE INFECTION ASSAY - IC50): 5.66 µM
14 | CC(C)(C)c1ccccc1NC(=O)Nc1nc(C(N)Cc2ccc(Cl)cc2)cs1 (stereo not given) | 5.51 | IC50 (PBLUC_HILL_SLOPE 4.24, PBLUC_R_SQUARED 0.754, read-out: LUCIFERASE INFECTION ASSAY - IC50): 3.28 µM
15 | O=C(c1cn2ccccc2n1)N1CCN(C(c2ccccc2)c2ccccc2)CC1 | > 10 | IC50 (PBLUC_HILL_SLOPE 4.26, PBLUC_R_SQUARED 0.0991, read-out: LUCIFERASE INFECTION ASSAY - IC50): 6.51 µM
16 | Oc1c(Br)cc(Cl)cc1/C=C/c1ccc2cccc(O)c2n1 | > 8.76 | IC50 (PBLUC_HILL_SLOPE 4.36, PBLUC_R_SQUARED 0.823, read-out: LUCIFERASE INFECTION ASSAY - IC50): 5.59 µM
17 | NC(=O)c1ccc(Nc2nc(-c3cccnc3)nc3ccccc23)cc1 | > 10 | IC50 (PBLUC_HILL_SLOPE 4.21, PBLUC_R_SQUARED 0.0982, read-out: LUCIFERASE INFECTION ASSAY - IC50): > 10 µM
18 | CS(=O)(=O)c1ccc(-c2cnc3c(NC=O)cc(-c4ccccc4)cn23)cc1 | > 8.43 | IC50 (PBLUC_HILL_SLOPE 4.26, PBLUC_R_SQUARED 0.756, read-out: LUCIFERASE INFECTION ASSAY - IC50): 6.43 µM
19 | CCOc1cccc(-c2cn3c(-c4ccc(C#N)cc4)cnc3cn2)c1 | > 9.69 | IC50 (PBLUC_HILL_SLOPE 4.27, PBLUC_R_SQUARED 0.47, read-out: LUCIFERASE INFECTION ASSAY - IC50): 6.18 µM
20 | CC(C)Cc1nc2oc3c(NCCO)ncnc3c2c2c1CCCC2 | > 9.69 | IC50 (PBLUC_HILL_SLOPE 4.31, PBLUC_R_SQUARED 0.188, read-out: LUCIFERASE INFECTION ASSAY - IC50): 6.98 µM

Row | SMILES | IC90 [µM] | other results
21 | CCN(c1ccccc1)S(=O)(=O)c1cc(-c2oc3ccc(F)cc3c(=O)c2C)ccc1C | > 10 | IC50 (PBLUC_HILL_SLOPE 4.38, PBLUC_R_SQUARED 0.421, read-out: LUCIFERASE INFECTION ASSAY - IC50): 6.53 µM
22 | FC(F)(F)Oc1ccc(Nc2nnc(Sc3ncnc4ccsc34)s2)cc1 | > 10 | IC50 (PBLUC_HILL_SLOPE 4.22, PBLUC_R_SQUARED 0.601, read-out: LUCIFERASE INFECTION ASSAY - IC50): 6.4 µM
23 | COc1ccccc1/C=C(/C(=O)OCc1cc(=O)n2cc(C)ccc2n1)c1ccccc1 | > 10 | IC50 (PBLUC_HILL_SLOPE 4.19, PBLUC_R_SQUARED 0.0967, read-out: LUCIFERASE INFECTION ASSAY - IC50): 6.55 µM
24 | CCNC(=O)c1cccc(Nc2ccc(C(=O)c3ccccc3)cc2)c1 | 8.6 | IC50 (PBLUC_HILL_SLOPE 4.36, PBLUC_R_SQUARED 0.612, read-out: LUCIFERASE INFECTION ASSAY - IC50): 5.2 µM
25 | O=C(Nc1ccc(F)cc1)C(Sc1nnc(-c2cccs2)[nH]1)c1ccccc1 (stereo not given) | > 10 | IC50 (PBLUC_HILL_SLOPE 4.17, PBLUC_R_SQUARED 0.509, read-out: LUCIFERASE INFECTION ASSAY - IC50): 6.11 µM
26 | O=C(NC1CC1)c1ccc(-c2cnc3cnc(-c4ccc(CNc5ccccc5)cc4)cn23)cc1 | > 7.18 | IC50 (PBLUC_HILL_SLOPE 4.2, PBLUC_R_SQUARED 0.624, read-out: LUCIFERASE INFECTION ASSAY - IC50): 4.59 µM
27 | CC(C)N(CCNC(=O)c1ccc(CSc2nc3ccccc3s2)cc1)C(C)C | 9.07 | IC50 (PBLUC_HILL_SLOPE 4.35, PBLUC_R_SQUARED 0.48, read-out: LUCIFERASE INFECTION ASSAY - IC50): 5.47 µM
28 | COc1ccc(-c2cnc3cnc(-c4ccc(N5CCN(C)CC5)cc4)cn23)cc1 | > 8.26 | IC50 (PBLUC_HILL_SLOPE 4.21, PBLUC_R_SQUARED 0.0945, read-out: LUCIFERASE INFECTION ASSAY - IC50): 6.36 µM
29 | N#Cc1cccc(Nc2nc(C(F)(F)F)nc3ccccc23)c1 | > 10 | IC50 (PBLUC_HILL_SLOPE 4.2, PBLUC_R_SQUARED 0.258, read-out: LUCIFERASE INFECTION ASSAY - IC50): 8.32 µM
30 | Cc1ccccc1-c1nc2oc3ccccc3c(=O)c2c(=O)n1Cc1ccccc1 | 5.78 | IC50 (PBLUC_HILL_SLOPE 4.15, PBLUC_R_SQUARED 0.52, read-out: LUCIFERASE INFECTION ASSAY - IC50): 3.4 µM
31 | CC(c1ccccc1)n1c(SCCSc2cc(Cl)ccc2Cl)nc2ccccc2c1=O (stereo not given) | > 10 | IC50 (PBLUC_HILL_SLOPE 4.25, PBLUC_R_SQUARED 0.473, read-out: LUCIFERASE INFECTION ASSAY - IC50): 6.21 µM
32 | COc1ccc(/C=C2\CCCC3C2=NN(C(=O)Cn2cc(C(F)(F)F)ccc2=O)C3c2ccc(OC)cc2)cc1 (stereo not given) | 8.1 | IC50 (PBLUC_HILL_SLOPE 4.26, PBLUC_R_SQUARED 0.126, read-out: LUCIFERASE INFECTION ASSAY - IC50): 4.84 µM
33 | CCCOc1ccc(/C=N/NC(=S)NCCCN2CCOCC2)c(OCCC)c1 | > 10 | IC50 (PBLUC_HILL_SLOPE 4.29, PBLUC_R_SQUARED 0.235, read-out: LUCIFERASE INFECTION ASSAY - IC50): 8.13 µM
34 | COCOc1ccc(-c2cc(-c3ccc(S(C)(=O)=O)cc3)cnc2N)cc1 | 1.3 | IC50 (PBLUC_HILL_SLOPE 4.16, PBLUC_R_SQUARED 0.931, read-out: LUCIFERASE INFECTION ASSAY - IC50): 0.765 µM
35 | CCOc1ccc(OCC)c(NC(=O)/C=C/c2ccc(OCc3cn4ccccc4n3)cc2)c1 | > 10 | IC50 (PBLUC_HILL_SLOPE 4.17, PBLUC_R_SQUARED 0.3, read-out: LUCIFERASE INFECTION ASSAY - IC50): 8.87 µM
36 | CCCCCC(/C=N/Nc1nncc2ccccc12)=C\c1ccccc1 | 9.96 | IC50 (PBLUC_HILL_SLOPE 4.26, PBLUC_R_SQUARED 0.663, read-out: LUCIFERASE INFECTION ASSAY - IC50): 5.95 µM
37 | CN(CCOc1ccc(Br)cc1)C(=O)c1[nH]nc2ccccc12 | > 10 | IC50 (PBLUC_HILL_SLOPE 4.37, PBLUC_R_SQUARED 0.302, read-out: LUCIFERASE INFECTION ASSAY - IC50): 6.76 µM
38 | O=C(Cc1ccc(Cl)cc1)N1CCc2nc(NCc3cccc(Oc4ccccc4)c3)ncc2C1 | > 6.8 | IC50 (PBLUC_HILL_SLOPE 4.18, PBLUC_R_SQUARED 0.529, read-out: LUCIFERASE INFECTION ASSAY - IC50): 4.95 µM
39 | COCOc1ccc(-c2cc(-c3cccc(NC(C)=O)c3)cnc2N)cc1 | 5.97 | IC50 (PBLUC_HILL_SLOPE 4.33, PBLUC_R_SQUARED 0.629, read-out: LUCIFERASE INFECTION ASSAY - IC50): 3.59 µM
40 | COc1cc(-c2cc(-c3cc(OC)c(OC)c(OC)c3)cnc2N)ccc1O | 6.84 | IC50 (PBLUC_HILL_SLOPE 4.32, PBLUC_R_SQUARED 0.78, read-out: LUCIFERASE INFECTION ASSAY - IC50): 4.12 µM
